Test: gradient 5% acetonitrile 3 min, to 50% in 2 min, to 85% in 15 min, held 3 min, 100 µL/min
Details: column: Zorbax Extend-C18 2.1 x 50 mm; eluents: water / acetonitrile, 0.1% formic acid
Method in brief: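 Retention times come from adduct peaks that were picked computationally and then checked by hand. The standards, pure and pooled in mixtures of ~100 molecules, were run on a Zorbax Extend-C18 column (2.1 × 50 mm, 1.8 μm) at 100 μL/min with water and acetonitrile, each with 0.1% formic acid. Detection was by quadrupole time-of-flight mass spectrometry in positive and negative ionization mode, with a dead volume of 40 μL and a dwell volume of 900 μL.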

Row | SMILES | RP-LC retention time
1 | COc1ccc(-c2noc(C3CC(=O)N(c4cccc(Cl)c4)C3)n2)cc1 (stereo not drawn) | 998 s
2 | O=c1c2ccccc2c(-c2nc(-c3cccnc3)no2)cn1-c1ccc(Cl)cc1 | 1120 s
3 | O=C(Nc1cnc(N2CCCC2)nc1)c1ccccc1Br | 717 s
4 | CCn1cnc(S(=O)(=O)N2CCC(C(=O)NCCC3=CCCCC3)CC2)c1 | 761 s
5 | CCn1nnc(NCc2ccc(-c3cc(Cl)ccc3Cl)o2)n1 | 1110 s
6 | CC(C)c1noc(C2(NC(=O)c3ccoc3)CCCCC2)n1 | 867 s
7 | CCC1CCCCN1CCCNC(=O)C1=C(C)C(=O)OC12CCN(C(C)=O)CC2 (stereo not drawn) | 565 s
8 | COc1cc([C@@H]2c3cc4c(cc3[C@H](O)[C@@H](CO)[C@@H]2C(=O)NCCCN(C)C)OCO4)cc(OC)c1OC | 596 s
9 | Cn1c(C(=O)N2CCN(c3cccc(Cl)c3)CC2)cc2sccc21 | 1090 s
10 | CCN(c1ccccc1)S(=O)(=O)c1ccc(C(=O)Nc2cc(C)nn2C(C)C)cc1 | 858 s
11 | COCCCNC(=O)C1CCN(C(=O)c2ncn3c2COC(c2ccc(F)cc2)C3)CC1 (stereo not drawn) | 626 s
12 | CCn1cc(C(=O)Nc2ccc(C)c(C)c2)c(S(=O)(=O)N2CCSCC2)n1 | 1050 s
13 | Cc1nn(-c2nc(-c3ccc(Cl)cc3)cs2)c(C)c1CC(=O)Nc1cccc(C(F)(F)F)c1 | 1380 s
14 | CCCN1CCN(CCCNC(=O)c2noc3c2CCCCC3)CC1 | 594 s
15 | COc1ccc(-c2csc(CN3CCN(C(=O)c4c(F)cccc4Cl)CC3)n2)cc1 | 805 s
16 | CCOc1ccccc1-c1nc(CN(c2ccccc2)S(=O)(=O)c2cccs2)c(C)o1 | 1160 s
17 | CN1C(=O)CCc2cc(NS(=O)(=O)Cc3cccc(Cl)c3)ccc21 | 751 s
18 | CCC(C)N(CCNC(=O)Cn1c(=O)oc2ccccc21)Cc1ccco1 (stereo not drawn) | 631 s
19 | Cc1ccc2nc(-c3cccc(F)c3)cc(C(N)=O)c2c1 | 880 s
20 | CCCn1c(CCNC(=O)c2c(F)cccc2F)nc2cccnc21 | 694 s
21 | Cc1nc(CNC(=O)C2CCN(C(=O)Nc3ccc(C)c(C)c3)CC2)cs1 | 675 s
22 | Cc1ccc(CNC(=O)c2cc3c(s2)CCN(C(=O)c2ccccc2)C3)o1 | 881 s

Row | SMILES | RP-LC retention time
23 | O=C(CN1C(=O)CCCc2cc(S(=O)(=O)N3CCCC3)ccc21)N1CCc2ccccc2C1 | 838 s
24 | CCn1nccc1-c1cccc(-c2noc(-c3ccc(F)cc3F)n2)c1 | 1270 s
25 | CCC(=O)OCCN1C(=O)c2cccc3c(N4CCCCC4)ccc(c23)C1=O | 1170 s
26 | CN(c1nc(-c2ccc(Cl)cc2)nc2ccccc12)C1CCCCC1 | 941 s
27 | N#Cc1cccc(S(=O)(=O)N2CCc3nc[nH]c3C2)c1 | 592 s
28 | O=S(=O)(c1ccc(C(F)(F)F)cc1)N1CC(c2nc(-c3ccncc3)no2)C1 | 888 s
29 | O=C(c1ccc2cc[nH]c2c1)N1C[C@@H]2C[C@H]1C[C@@H]2NS(=O)(=O)c1cccs1 | 754 s
30 | CCc1nnc(-c2cc(NS(C)(=O)=O)c(C)s2)o1 | 747 s
31 | CCOc1ccc2nc(Nc3nc(C)c4c(n3)CCCC4)nc(C)c2c1 | 573 s
32 | O=S(=O)(c1ccc(F)cc1F)N1CCc2nc(-c3ccc(Cl)cc3)ncc2C1 | 1200 s
33 | Cc1cccc2c1ncn1c(=O)n(CC(=O)Nc3ccc4c(c3)OCCO4)nc21 | 637 s
34 | Cc1c(C(=O)N2CCSCC2)cnn1-c1cc(-c2nc(C(C)C)no2)ccn1 | 974 s
35 | Cc1cccc(N2C(=O)C(O)=C(C(=O)c3cccs3)C2c2ccc(Cl)cc2)n1 (stereo not drawn) | 1040 s
36 | COc1ccc(NC(=O)C2CCCN(c3nnc4ccc(Cl)cn34)C2)cc1 (stereo not drawn) | 666 s
37 | CCOC(=O)N1CCN(C(=O)CSc2ncnc3c2nnn3CC)CC1 | 657 s
38 | COc1ccc(-c2csc(NCCc3ccc(OC)c(OC)c3)n2)cc1 | 792 s
39 | Cc1ccc(OCC(=O)Nc2cc3[nH]c(=O)[nH]c3cc2C)cc1 | 698 s
40 | CC1CCCCN1c1nc(-c2ccc([N+](=O)[O-])cc2)nc2ccccc12 (stereo not drawn) | 948 s
41 | Cc1ccc(N2CC(c3noc(COc4cccc(C)c4)n3)CC2=O)cc1 (stereo not drawn) | 1050 s
42 | O=C(CN1c2ccc(F)cc2-c2ccccc2S1(=O)=O)Nc1ccccc1 | 936 s
43 | CCOC(=O)C1CCN([C@H]2CS(=O)(=O)C[C@@H]2S(=O)(=O)c2ccccc2)CC1 | 826 s
44 | Cc1ccc(S(=O)(=O)N2CCC3(CC2)NCCN=C3NCc2ccc(C(F)(F)F)cc2)cc1 | 789 s

Row | SMILES | RP-LC retention time
45 | CCOc1cc(=O)n2c(c1C(=O)Nc1ccc(Br)cc1)CCCC2 | 798 s
46 | Cc1ccc(-c2csc(Nc3ccc(Br)cn3)n2)cc1 | 1250 s
47 | CC1CCN(C(=O)c2nnc(-c3ccc(S(=O)(=O)N4CCCCC4)cc3)o2)CC1 | 1060 s
48 | CCc1ccc(S(=O)(=O)N2CCC(c3nc(C(=O)N4CCCC4)c(C)o3)CC2)cc1 | 1010 s
49 | CC(Oc1ccc(-c2cnc3ccccc3n2)cc1)C(=O)N(C)Cc1ccco1 (stereo not drawn) | 620 s
50 | O=C(NCc1ccccc1)C1CCCN(S(=O)(=O)c2c[nH]c(C(=O)N3CCCCCC3)c2)C1 (stereo not drawn) | 826 s
51 | Cn1cnc(S(=O)(=O)N2CCC[C@H](n3c(=O)n(C)c4cccnc43)C2)c1 | 654 s
52 | CCN1CCN(C(=O)C2CCN(S(=O)(=O)c3cc(C(=O)N4CCCC4)n(C)c3)CC2)CC1 | 567 s
53 | COc1ccc(NS(=O)(=O)c2cc(-c3nnc(C(=O)N4CCCC4)o3)sc2C)cc1OC | 806 s
54 | COc1ccc(-c2nc(N3CCN(c4ccccn4)CC3)c3ccccc3n2)cc1 | 580 s
55 | CCOC(=O)c1sc(NC(=O)c2ccncc2)nc1-c1ccccc1 | 855 s
56 | COc1ccc(Br)cc1S(=O)(=O)NCCc1ccccc1 | 962 s
57 | Cc1c(C(=O)N2CCC(C(=O)NC3CCN(Cc4ccccc4)CC3)CC2)sc2nc[nH]c(=O)c12 | 568 s
58 | CCN1CCCc2cc(C(=O)NC3CCCCC3)sc21 | 1010 s
59 | CCOc1ccc(-c2nc(C3CC(=O)N(c4ccc(C)cc4)C3)no2)cc1 (stereo not drawn) | 1070 s
60 | Cc1cccc(Cn2cc(C(=O)O)c(S(=O)(=O)N3CCSCC3)n2)c1 | 914 s
61 | CCOC(=O)N1CCN(Cc2c(NC(=O)c3ccccc3)sc(C)c2C)CC1 | 630 s
62 | O=S(=O)(c1ccc(-n2cnnn2)cc1)N1CCN(c2ccccn2)CC1 | 596 s
63 | COC(=O)c1nc(NC(=O)Cn2nc3c(cc2=O)CCCC3)sc1Cc1ccccc1 | 868 s
64 | CCCCS(=O)(=O)N1CCC(F)(c2nc(-c3ccccc3)no2)CC1 | 1080 s
65 | CCn1cc(-c2nc(CC(=O)Nc3ccc(OC)c(F)c3)cs2)c2cccnc21 | 884 s
66 | N#CCSc1nnc2ccc3ccccc3n12 | 639 s

Row | SMILES | RP-LC retention time
67 | COc1ccc(CNC(=O)Cn2nc3cc(C)nc(-c4ccccc4)n3c2=O)cc1 | 752 s
68 | CCOC(=O)c1nc(Nc2ccccc2Cl)c2ccccc2n1 | 913 s
69 | CCn1cnc(S(=O)(=O)N2CCCC(C(=O)NCCCc3ccccc3)C2)c1 (stereo not drawn) | 769 s
70 | CCc1ccccc1NS(=O)(=O)c1ccc(CN2C(=O)c3ccccc3C2=O)cc1 | 954 s
71 | COc1ccc(-c2nc(-c3ccc4c(c3)ncn4CCC(=O)N3CCCC3)no2)cc1 | 742 s
72 | CCCCOc1ccc(C(=O)Nc2cccc(C)n2)cc1 | 840 s
73 | Cc1c(C(=O)C(=O)Nc2ccc3c(c2)OCCO3)c2ccccc2n1C | 861 s
74 | O=C(CC1CCN(C(=O)c2ccc3oc(-c4ccccc4)nc3c2)CC1)N1CCCC1 | 782 s
75 | CCc1ccc(C2=C(C)C(N3CCCN(C(=O)c4ccccn4)CC3)=NS2(=O)=O)cc1 | 788 s
76 | CCc1nnc2cc(N3CCN(Cc4cn[nH]c4-c4ccccc4)CC3)cnn12 | 541 s
77 | O=S(=O)(c1ccc(F)cc1)N1CCC2(CC1)NCCN=C2NCc1ccc(Cl)cc1 | 722 s
78 | O=C([C@@H]1C[C@H](Oc2ccccc2)CN1C(=O)C1CCCC1)N1CCCC1 | 784 s
79 | Cc1nc(N2CCN(c3ccccn3)CC2)c2c(C)c(C(=O)Nc3cccc(Cl)c3C)sc2n1 | 752 s
80 | CCc1noc(C2(NC(=O)c3cc(-c4ccccc4)n[nH]3)CCCCC2)n1 | 906 s
81 | CCN(CC)c1ncc2c(n1)CCC(C(=O)Nc1ccc(C(=O)OC)cc1)C2 (stereo not drawn) | 736 s
82 | Cc1cnc(C2CN(C(=O)c3ccsc3)C2)n1CC1CC1 | 595 s
83 | COc1ccc(OC)c(Nc2c(C(=O)N3CCCC3)cnc3nc(C)ccc23)c1 | 601 s
84 | O=C(c1cc(F)ccc1Cl)N1CCN(c2ncccc2-c2nnc(C3CC3)o2)CC1 | 834 s
85 | Cc1ccc(-c2ncccc2CNS(=O)(=O)Cc2ccccc2F)cc1 | 693 s
86 | CC(C)CN1CCN(Cc2nc(-c3ccc(N4CCCC(C)C4)nc3)no2)CC1 (stereo not drawn) | 645 s
87 | O=C(c1ccsc1)N1CCC[C@H]1c1nc(C2CCOCC2)n[nH]1 | 592 s
88 | COc1cc(-c2nc(Cn3ccn4nc(-c5ccccc5)cc4c3=O)c(C)o2)cc(OC)c1OC | 990 s
